≈ marks a conversion by molar mass, not a printed value.
Legend:
[1] = Half life in rat liver microsome; assay type: ADME; settings: liver microsomes
[2] = target: Potassium voltage-gated channel subfamily A member 5 (Homo sapiens, UniProt P22460); experiment: Inhibition of human Kv1.5 ion channel expressed in CHO K1 cells; assay type: cell-based
[3] = target: Potassium voltage-gated channel subfamily A member 3 (Homo sapiens, UniProt P22001); experiment: Inhibition of human Kv1.3 ion channel expressed in CGE22 cells; assay type: cell-based
Rattus norvegicus = experiment: Dose normalised AUC in rat at 10 mg/kg, po; assay type: ADME, organism-based; set-up: dose 10 mg/kg, route oral; settings: in vivo
[4] = Aqueous solubility of compound by chemiluminescent nitrogen detection analysis; assay type: physicochemical
[5] = Cmax in rat at 10 mg/kg, po; assay type: ADME, organism-based; set-up: dose 10 mg/kg, route oral; settings: in vivo

Chain of Potassium voltage-gated channel subfamily A member 3 (P22001 whole entry): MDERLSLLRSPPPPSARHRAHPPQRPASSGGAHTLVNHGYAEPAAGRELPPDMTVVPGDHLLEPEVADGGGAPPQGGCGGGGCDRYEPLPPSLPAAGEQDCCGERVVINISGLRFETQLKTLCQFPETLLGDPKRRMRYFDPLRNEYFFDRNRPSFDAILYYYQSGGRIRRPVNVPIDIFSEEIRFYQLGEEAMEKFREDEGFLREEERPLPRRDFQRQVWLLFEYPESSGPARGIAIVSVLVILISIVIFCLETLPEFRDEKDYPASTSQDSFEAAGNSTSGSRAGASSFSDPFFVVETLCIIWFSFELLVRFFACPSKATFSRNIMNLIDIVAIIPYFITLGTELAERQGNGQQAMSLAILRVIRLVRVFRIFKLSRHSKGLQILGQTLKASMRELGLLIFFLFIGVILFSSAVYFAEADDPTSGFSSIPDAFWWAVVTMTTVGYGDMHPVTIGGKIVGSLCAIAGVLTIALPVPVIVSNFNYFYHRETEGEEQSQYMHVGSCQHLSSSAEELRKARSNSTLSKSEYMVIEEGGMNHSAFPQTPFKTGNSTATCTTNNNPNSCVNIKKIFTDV
Chain of Potassium voltage-gated channel subfamily A member 5 (P22460 whole entry): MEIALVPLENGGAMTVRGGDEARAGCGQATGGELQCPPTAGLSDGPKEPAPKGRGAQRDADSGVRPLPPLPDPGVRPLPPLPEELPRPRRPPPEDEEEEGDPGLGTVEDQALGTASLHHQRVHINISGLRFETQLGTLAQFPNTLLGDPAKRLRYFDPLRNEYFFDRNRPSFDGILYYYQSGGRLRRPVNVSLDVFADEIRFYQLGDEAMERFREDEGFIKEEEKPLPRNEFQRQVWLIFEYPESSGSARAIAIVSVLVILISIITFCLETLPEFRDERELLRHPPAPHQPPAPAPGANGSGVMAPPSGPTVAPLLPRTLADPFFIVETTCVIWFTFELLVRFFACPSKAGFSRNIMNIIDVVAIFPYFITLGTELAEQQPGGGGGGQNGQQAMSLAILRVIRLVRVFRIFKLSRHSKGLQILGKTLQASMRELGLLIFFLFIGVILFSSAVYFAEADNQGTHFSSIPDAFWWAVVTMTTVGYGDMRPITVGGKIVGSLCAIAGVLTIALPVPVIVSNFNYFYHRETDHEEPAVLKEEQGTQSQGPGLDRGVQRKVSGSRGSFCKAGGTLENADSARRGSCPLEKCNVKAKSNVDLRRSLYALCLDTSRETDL

| IC50 [2] | IC50 [3] | Structure (SMILES) | other results |
| --- | --- | --- | --- |
| – | – | O=C(NCCCN(C1=NS(=O)(=O)c2ccccc21)c1ccccc1)c1ccc(F)cc1 | half-life [1]: < 15 min |
| 320 nM | 90 nM | CC(C)(CNC(=O)C1(C(F)(F)F)CCC1)CN(C1=NS(=O)(=O)c2cc(F)ccc21)c1ccccc1 | – |
| 830 nM | 360 nM | CC(C)(CNC(=O)C1CCCO1)CN(C1=NS(=O)(=O)c2cc(F)ccc21)c1ccccc1 (configuration not stated) | – |
| – | 560 nM | CC(C)(CNC(=O)c1cccc(C(F)(F)F)c1)CN(C1=NS(=O)(=O)c2ccccc21)c1ccccc1 | half-life [1]: < 15 min |
| 320 nM | 140 nM | CC(C)(CNC(=O)C1CC1(F)F)CN(C1=NS(=O)(=O)c2cc(F)ccc21)c1ccccc1 (configuration not stated) | – |
| 520 nM | 550 nM | Cn1ccnc1C(=O)NCC(C)(C)CN(C1=NS(=O)(=O)c2cc(F)ccc21)c1ccccc1 | – |
| 560 nM | 330 nM | CC(C)(CNC(=O)C1(C#N)CCOCC1)CN(C1=NS(=O)(=O)c2cc(F)ccc21)c1ccccc1 | – |
| 290 nM | 540 nM | CC(C)(CNC(=O)c1cscn1)CN(C1=NS(=O)(=O)c2cc(F)ccc21)c1ccccc1 | – |
| – | 470 nM | CC(C)(CNC(=O)N1CCOCC1)CN(C1=NS(=O)(=O)c2ccccc21)c1ccccc1 | half-life [1]: 30 min |
| 240 nM | 80 nM | CC(C)(CNC(=O)C1(C(F)(F)F)CC1)CN(C1=NS(=O)(=O)c2cc(F)ccc21)c1ccccc1 | – |
| 1320 nM | 1150 nM | CC(C)(CNC(=O)c1cc[nH]c1)CN(C1=NS(=O)(=O)c2cc(F)ccc21)c1ccccc1 | – |
| 2880 nM | 3400 nM | CN1CCCCC1C(=O)NCC(C)(C)CN(C1=NS(=O)(=O)c2cc(F)ccc21)c1ccccc1 (configuration not stated) | – |
| 2640 nM | 1510 nM | CC(C)(CNC(=O)C1(N)CCCC1)CN(C1=NS(=O)(=O)c2cc(F)ccc21)c1ccccc1 | – |
| – | 530 nM | CC(C)(CNC(=O)C1CCOCC1)CN(C1=NS(=O)(=O)c2cc(F)ccc21)c1ccccc1 | half-life [1]: 26 min |
| 2000 nM | 1260 nM | CC(C)(CNC(=O)C1COCCN1)CN(C1=NS(=O)(=O)c2cc(F)ccc21)c1ccccc1 (configuration not stated) | – |
| 630 nM | 390 nM | CC(C)(CNC(=O)C1(O)CCC(F)(F)CC1)CN(C1=NS(=O)(=O)c2cc(F)ccc21)c1ccccc1 | – |
| 340 nM | 300 nM | CC(C)(CNC(=O)N1CCCC1)CN(C1=NS(=O)(=O)c2cc(F)ccc21)c1ccccc1 | – |
| 370 nM | 200 nM | COc1cnccc1C(=O)NCC(C)(C)CN(C1=NS(=O)(=O)c2cc(F)ccc21)c1ccccc1 | – |
| 460 nM | 320 nM | CC(C)(CNC(=O)c1ncccc1O)CN(C1=NS(=O)(=O)c2cc(F)ccc21)c1ccccc1 | – |
| 780 nM | 1350 nM | CC(C)(CNC(=O)CC1CCCCO1)CN(C1=NS(=O)(=O)c2cc(F)ccc21)c1ccccc1 (configuration not stated) | – |
| – | 700 nM | CC(C)(CNC(=O)C1CCOCC1)CN(C1=NS(=O)(=O)c2ccccc21)c1ccccc1 | half-life [1]: 32 min |
| – | 340 nM | CC(C)(CNC(=O)N1CCOCC1)CN(C1=NS(=O)(=O)c2cc(F)ccc21)c1ccccc1 | half-life [1]: 60 min |
| 410 nM | 200 nM | CC(C)(CNC(=O)c1ccco1)CN(C1=NS(=O)(=O)c2cc(F)ccc21)c1ccccc1 | – |
| 440 nM | 640 nM | CC(C)(CNC(=O)C1CCCCO1)CN(C1=NS(=O)(=O)c2cc(F)ccc21)c1ccccc1 (configuration not stated) | – |
| 270 nM | 150 nM | CC(C)(CNC(=O)CC(F)(F)F)CN(C1=NS(=O)(=O)c2cc(F)ccc21)c1ccccc1 | – |
| 2220 nM | 3080 nM | CNC(=O)NCC(C)(C)CN(C1=NS(=O)(=O)c2cc(F)ccc21)c1ccccc1 | – |
| – | 440 nM | CC(CNC(=O)c1ccc(F)cc1)CN(C1=NS(=O)(=O)c2ccccc21)c1ccccc1 (configuration not stated) | half-life [1]: 22 min |

| IC50 [2] | IC50 [3] | Structure (SMILES) | other results |
| --- | --- | --- | --- |
| 900 nM | 750 nM | CC(C)(CNC(=O)c1cocn1)CN(C1=NS(=O)(=O)c2cc(F)ccc21)c1ccccc1 | – |
| > 50000 nM | > 50000 nM | CN1CCC(C(=O)NCC(C)(C)CN(C2=NS(=O)(=O)c3cc(F)ccc32)c2ccccc2)CC1 | – |
| 480 nM | 250 nM | CC(C)(CNC(=O)C(C)(O)C(F)(F)F)CN(C1=NS(=O)(=O)c2cc(F)ccc21)c1ccccc1 (configuration not stated) | AUC (Rattus norvegicus): 1630 ng·kg·h/mg/mL; solubility [4]: 52 µM (≈ 26.1 µg/mL); Cmax [5]: 2100 ng/mL |
| 360 nM | 150 nM | CC(C)(CNC(=O)c1ccoc1)CN(C1=NS(=O)(=O)c2cc(F)ccc21)c1ccccc1 | – |
| 1180 nM | 1180 nM | CC(=O)NCC(C)(C)CN(C1=NS(=O)(=O)c2cc(F)ccc21)c1ccccc1 | – |
| 350 nM | 230 nM | CC(C)(CNC(=O)c1cnccn1)CN(C1=NS(=O)(=O)c2cc(F)ccc21)c1ccccc1 | – |
| 1390 nM | 2560 nM | CN1CCCC1C(=O)NCC(C)(C)CN(C1=NS(=O)(=O)c2cc(F)ccc21)c1ccccc1 (configuration not stated) | – |
| 490 nM | 280 nM | CC(C)(CNC(=O)C1CC1)CN(C1=NS(=O)(=O)c2cc(F)ccc21)c1ccccc1 | – |
| 960 nM | 840 nM | CC(C)(CNC(=O)C1CCOCC1(C)C)CN(C1=NS(=O)(=O)c2cc(F)ccc21)c1ccccc1 (configuration not stated) | – |
| 1980 nM | 1070 nM | CC(C)(CNC(=O)C1(O)CCOCC1)CN(C1=NS(=O)(=O)c2cc(F)ccc21)c1ccccc1 | – |
| 3450 nM | – | O=c1ccc2c(OCCCCOc3ccccc3)c3ccoc3cc2o1 | – |
| – | 700 nM | CC(C)(CNC(=O)c1cccc(C(F)(F)F)c1)CN(C1=NS(=O)(=O)c2cc(F)ccc21)c1ccccc1 | half-life [1]: 39 min |
| > 50000 nM | > 50000 nM | CC(C)(CNC(=O)c1ccncc1O)CN(C1=NS(=O)(=O)c2cc(F)ccc21)c1ccccc1 | – |
| > 50000 nM | > 50000 nM | CC(C)(CNC(=O)C1CCCNC1)CN(C1=NS(=O)(=O)c2cc(F)ccc21)c1ccccc1 (configuration not stated) | – |
| 13900 nM | 13100 nM | Cn1cnc(C(=O)NCC(C)(C)CN(C2=NS(=O)(=O)c3cc(F)ccc32)c2ccccc2)c1 | – |
| 1350 nM | 820 nM | CC(C)(CNC(=O)C1(O)CC1)CN(C1=NS(=O)(=O)c2cc(F)ccc21)c1ccccc1 | – |
| 370 nM | 200 nM | CC(C)(CNC(=O)C1(C)CC1)CN(C1=NS(=O)(=O)c2cc(F)ccc21)c1ccccc1 | – |
| > 50000 nM | > 50000 nM | CC(C)(CNC(=O)C1(C(=O)O)CC1)CN(C1=NS(=O)(=O)c2cc(F)ccc21)c1ccccc1 | – |
| 5970 nM | 5900 nM | CC(C)(CNC(=O)C1CCCCN1)CN(C1=NS(=O)(=O)c2cc(F)ccc21)c1ccccc1 (configuration not stated) | – |
| 450 nM | 350 nM | CC(C)(CNC(=O)C1(O)CCCCC1)CN(C1=NS(=O)(=O)c2cc(F)ccc21)c1ccccc1 | – |
| 9060 nM | 10100 nM | CC(C)(CNC(=O)c1cccnc1O)CN(C1=NS(=O)(=O)c2cc(F)ccc21)c1ccccc1 | – |
| 730 nM | 470 nM | CC(C)(CNC(=O)C1(O)CCCC1)CN(C1=NS(=O)(=O)c2cc(F)ccc21)c1ccccc1 | – |
| 790 nM | 530 nM | CC(C)(CNC(=O)C1(N)CC1)CN(C1=NS(=O)(=O)c2cc(F)ccc21)c1ccccc1 | – |
| > 50000 nM | > 50000 nM | CC(C)(CNC(=O)c1cc2ccccc2o1)CN(C1=NS(=O)(=O)c2cc(F)ccc21)c1ccccc1 | – |
| 13700 nM | 12000 nM | CN1CCCC(C(=O)NCC(C)(C)CN(C2=NS(=O)(=O)c3cc(F)ccc32)c2ccccc2)C1 (configuration not stated) | – |
| 540 nM | 350 nM | CC(C)(CNC(=O)C1(C#N)CC1)CN(C1=NS(=O)(=O)c2cc(F)ccc21)c1ccccc1 | AUC (Rattus norvegicus): 630 ng·kg·h/mg/mL; solubility [4]: 304 µM (≈ 138 µg/mL); Cmax [5]: 900 ng/mL |
| – | 160 nM | CC(C)(CNC(=O)c1ccc(F)cc1)CN(C1=NS(=O)(=O)c2ccccc21)c1ccccc1 | half-life [1]: < 15 min |
